Measured values from ChEMBL document CHEMBL2380212, “Synthesis, single crystal and antitumor activities of benzimidazole-quinazoline hybrids” (Bioorg Med Chem Lett, 2013).

Columns and labels:
Assay type in all cases: functional
MDA-MB-468 = test: Cytotoxicity against human MDA-MB-468 cells at 10 uM after 48 hrs by SRB assay; conditions: MDA-MB-468, 48 h, read-out: GI
MCF7 = test: Cytotoxicity against human MCF7 cells at 10 uM after 48 hrs by SRB assay; conditions: MCF7, 48 h, read-out: GI
MDA-MB-231 = test: Cytotoxicity against human MDA-MB-231 cells at 10 uM after 48 hrs by SRB assay; conditions: MDA-MB-231, 48 h, read-out: GI
DU-145 = test: Cytotoxicity against human DU145 cells at 10 uM after 48 hrs by SRB assay; conditions: DU-145, 48 h, read-out: GI
SN12C = test: Cytotoxicity against human SN12C cells at 10 uM after 48 hrs by SRB assay; conditions: read-out: GI
A498 = test: Cytotoxicity against human A498 cells at 10 uM after 48 hrs by SRB assay; conditions: A498, 48 h, read-out: GI
NCI/ADR-RES = test: Cytotoxicity against human NCI/ADR-RES cells at 10 uM after 48 hrs by SRB assay; conditions: read-out: GI
OVCAR-4 = test: Cytotoxicity against human OVCAR4 cells at 10 uM after 48 hrs by SRB assay; conditions: OVCAR-4, 48 h, read-out: GI
MDA-MB-435 = test: Cytotoxicity against human MDA-MB-435 cells at 10 uM after 48 hrs by SRB assay; conditions: MDA-MB-435, 48 h, read-out: GI
Malme-3M = test: Cytotoxicity against human MALME-3M cells at 10 uM after 48 hrs by SRB assay; conditions: read-out: GI
LOX IMVI = test: Cytotoxicity against human LOXIMVI cells at 10 uM after 48 hrs by SRB assay; conditions: read-out: GI
SNB-19 = test: Cytotoxicity against human SNB19 cells at 10 uM after 48 hrs by SRB assay; conditions: SNB-19, 48 h, read-out: GI
SF-539 = test: Cytotoxicity against human SF539 cells at 10 uM after 48 hrs by SRB assay; conditions: SF-539, 48 h, read-out: GI
SF-268 = test: Cytotoxicity against human SF268 cells at 10 uM after 48 hrs by SRB assay; conditions: SF-268, 48 h, read-out: GI
NCI-H522 = test: Cytotoxicity against human NCI-H522 cells at 10 uM after 48 hrs by SRB assay; conditions: NCI-H522, 48 h, read-out: GI
NCI-H226 = test: Cytotoxicity against human NCI-H226 cells at 10 uM after 48 hrs by SRB assay; conditions: NCI-H226, 48 h, read-out: GI
A549 = test: Cytotoxicity against human A549 cells at 10 uM after 48 hrs by SRB assay; conditions: A549, 48 h, read-out: GI
K562 = test: Cytotoxicity against human K562 cells at 10 uM after 48 hrs by SRB assay; conditions: K562, 48 h, read-out: GI
CCRF-CEM = test: Cytotoxicity against human CCRF-CEM cells at 10 uM after 48 hrs by SRB assay; conditions: read-out: GI

SMILES	inhibition of growth at 10 µM (MDA-MB-468) [%]	inhibition of growth at 10 µM (MCF7) [%]	inhibition of growth at 10 µM (MDA-MB-231) [%]	inhibition of growth at 10 µM (DU-145) [%]	inhibition of growth at 10 µM (SN12C) [%]	inhibition of growth at 10 µM (A498) [%]	inhibition of growth at 10 µM (NCI/ADR-RES) [%]	inhibition of growth at 10 µM (OVCAR-4) [%]	inhibition of growth at 10 µM (MDA-MB-435) [%]	inhibition of growth at 10 µM (Malme-3M) [%]	inhibition of growth at 10 µM (LOX IMVI) [%]	inhibition of growth at 10 µM (SNB-19) [%]	inhibition of growth at 10 µM (SF-539) [%]	inhibition of growth at 10 µM (SF-268) [%]	inhibition of growth at 10 µM (NCI-H522) [%]	inhibition of growth at 10 µM (NCI-H226) [%]	inhibition of growth at 10 µM (A549) [%]	inhibition of growth at 10 µM (K562) [%]	inhibition of growth at 10 µM (CCRF-CEM) [%]
C=CCn1c(C)nc2ccc(Nc3nc(Cl)nc4ccccc34)cc21	16.3	< 10	10.1	< 10	< 10	44.5	< 10	< 10	< 10	< 10	< 10	< 10	< 10	10.1	< 10	< 10	18.5	25.2	
C=CCn1c(C)nc2ccc(Nc3nc(N4CCCC4)nc4ccccc34)cc21	< 10	38.1	58	26.2	< 10	28.5	16.7	< 10	< 10	< 10	97.5	< 10	< 10	13.1	< 10	< 10	25.4	98	
C=CCn1c(C)nc2cc(Nc3nc(N4CCCC4)nc4ccccc34)ccc21	13.3	< 10	< 10	< 10	< 10	27.6	< 10	< 10	< 10	< 10	< 10	< 10	< 10	< 10	< 10	22	10.1	14.9	
C=CCn1c(C)nc2cc(Nc3nc(N4CCOCC4)nc4ccccc34)ccc21	< 10	< 10	< 10	< 10	< 10	20.7	< 10	< 10	< 10		< 10	< 10	< 10	< 10	< 10	< 10	< 10	< 10	
C=CCn1c(C)nc2ccc(Nc3nc(N4CCN(C)CC4)nc4ccccc34)cc21	< 10	14.4	22.8	< 10	< 10	< 10	< 10	20.7	< 10	< 10	18	< 10	23.5	< 10	< 10	13.6	< 10	37.8	31.5
C=CCn1c(C)nc2cc(Nc3nc(Cl)nc4ccccc34)ccc21	19.1	< 10	14.5	< 10	< 10	31.5	10.5	< 10	< 10		< 10	< 10	< 10	< 10	< 10	17.8	< 10	21.3	
C=CCn1c(C)nc2ccc(Nc3nc(N4CCOCC4)nc4ccccc34)cc21	< 10	< 10	< 10	< 10	< 10	41.2	23.6	< 10	< 10	< 10	< 10	< 10	< 10	< 10	< 10	< 10	11.8	35.6	
